Test results: patent US8889743B2 (priority 2007, dated 2014)

How the values were obtained:
[1] = tested on: Ebola virus pseudotyped VSV particles; type: cell-based
[2] = tested on: wild type Ebola virus, Zaire strain; type: cell-based; settings: 7 days
[3] = tested on: Ebola virus GP pseudotype; type: cell-based
[4] = tested on: retrovirus pseudotypes bearing Ebola virus env; type: cell-based
[5] = tested on: retrovirus pseudotypes bearing eMLV (Fr-MLV) env; type: cell-based, ecotropic murine leukemia virus
[6] = tested on: Venezuelan equine encephalitis virus (VEEV) pseudotyped VSV particles; type: cell-based
[7] = tested on: EBOV pseudotyped lentivirus; assay: microbe, parasite or virus in culture; type: cell-based, EBOV Zaire strain
VSV GP pseudotype = type: cell-based, Vesicular stomatitis virus
[8] = tested on: live Ebola virus (Zaire strain); type: cell-based; settings: 10 days

Molecule: COc1ccc(CCN(C)CCCC(C#N)(c2ccc(OC)c(OC)c2)C(C)C)cc1OC (stereo not shown) [Verapamil]
- Ebola virus-like particle infection/entry, calmodulin inhibitors and L-channel blocking drugs [1]: highly effective
- Ebola virus induced cytopathic effect [2]: reduced or significantly prevented

Molecule: CO/C1=C\C(C)=C\[C@@H](C)[C@@H](O)[C@@H](C)C/C(C)=C/C=C/[C@H](OC)[C@@H]([C@@H](C)[C@@H](O)[C@H](C)[C@@]2(O)C[C@@H](O)[C@H](C)[C@@H](C(C)C)O2)OC1=O [bafilomycin A1]
- entry of Ebola virus GP pseudotype (luciferase activity), assay validation [3]: sensitive

Molecule: COc1ccc(S(=O)(=O)N(CCO)c2ccccc2CN(C)C/C=C/c2ccc(Cl)cc2)cc1 [KN-93]
- infection by retrovirus pseudotype bearing Ebola virus env (luciferase activity) [4]: strong effect
- infection by retrovirus pseudotype bearing eMLV env (luciferase activity) [5]: blocking only the Ebola infection
- infection of the VSV core EBOV pseudotyped virus [1]: significantly impacted
- infection with Ebola virus pseudotyped VSV particles ([1]; 10 μM): specifically blocked infection

Molecule: NCCCCCCNS(=O)(=O)c1cccc2c(Cl)cccc12 [W7]
- Ebola virus-like particle infection/entry, calmodulin inhibitors and L-channel blocking drugs [1]: inhibited
- Venezuelan equine encephalitis virus-like particle infection [6]: not

Molecule: O=c1cc(N2CCOCC2)oc2c(-c3ccccc3)cccc12 [LY294002]
- IC50 ([7]; Zaire ebolavirus, HEK293, read-out: IC50 value for infection of EBOV pseudotyped lentivirus): 6.5 ± 1.1 µM

Molecule: COc1ccc(S(=O)(=O)Nc2ccccc2CN(C)C/C=C/c2ccc(Cl)cc2)cc1 [KN-92]
- reduction in infection by the pseudotyped virus [7]: ~50%
- infection of the VSV core EBOV pseudotyped virus [1]: not

Molecule: COc1ccc([C@@H]2Sc3ccccc3N(CCN(C)C)C(=O)[C@@H]2OC(C)=O)cc1 [Diltiazem]
- infection by virus-like particles bearing Ebola virus env (GFP-expressing cells) [1]: potent and specific blockers

Molecule: CC(COc1ccccc1)N(CCCl)Cc1ccccc1 (stereo not shown) [Phenoxybenzamine]
- Ebola virus-like particle infection/entry, calmodulin inhibitors and L-channel blocking drugs [1]: inhibited
- Venezuelan equine encephalitis virus-like particle infection [6]: not

Molecule: COc1ccc2cc1Oc1ccc(cc1)C[C@H]1c3cc(c(OC)cc3CCN1C)Oc1c(OC)c(OC)cc3c1[C@H](C2)N(C)CC3 [Tetrandine]
- infection by virus-like particles bearing Ebola virus env (GFP-expressing cells) [1]: potent and specific blockers

Molecule: CN1CCN(CCCN2c3ccccc3Sc3ccc(C(F)(F)F)cc32)CC1 [Trifluorperazine]
- Ebola virus-like particle infection/entry, calmodulin inhibitors and L-channel blocking drugs [1]: inhibited
- Venezuelan equine encephalitis virus-like particle infection [6]: not

Molecule: CCN(CC)CCCC(C)Nc1nc(C)cc(Nc2ccc3nc(C)cc(N)c3c2)n1 (racemic) [Rac1 inhibitor]
- entry of Ebola virus GP pseudotype (luciferase activity) [3]: inhibits Ebola virus entry
- entry of VSV GP pseudotype (luciferase activity) (VSV GP pseudotype): unaffected

Molecule: N#CC(=C(/N)Sc1ccccc1N)/C(C#N)=C(\N)Sc1ccccc1N [U0126]
- entry of Ebola virus GP pseudotype (luciferase activity) [3]: not

Molecule: Cl.N [ammonium chloride]
- entry of Ebola virus GP pseudotype (luciferase activity), assay validation [3]: sensitive

Molecule: COCCOC(=O)C1=C(C)NC(C)=C(C(=O)OC(C)C)C1c1cccc([N+](=O)[O-])c1 (stereo not shown) [Nimodopine]
- Ebola virus-like particle infection/entry, calmodulin inhibitors and L-channel blocking drugs [1]: effective

Molecule: Methoxyverapamil
- Ebola virus-like particle infection/entry, calmodulin inhibitors and L-channel blocking drugs [1]: highly effective
- infection of live Ebola Zaire virus (plaque numbers normalized to DMSO) [8]: inhibition of infection
